IC50 data for 20 compounds are collected here from US12195482B1 (Arcus Biosciences, Inc., priority 2022, dated 2025).

The assay deals with T1, Axl (Homo sapiens, UniProt P30530).
T1 sequence (P30530 26-894): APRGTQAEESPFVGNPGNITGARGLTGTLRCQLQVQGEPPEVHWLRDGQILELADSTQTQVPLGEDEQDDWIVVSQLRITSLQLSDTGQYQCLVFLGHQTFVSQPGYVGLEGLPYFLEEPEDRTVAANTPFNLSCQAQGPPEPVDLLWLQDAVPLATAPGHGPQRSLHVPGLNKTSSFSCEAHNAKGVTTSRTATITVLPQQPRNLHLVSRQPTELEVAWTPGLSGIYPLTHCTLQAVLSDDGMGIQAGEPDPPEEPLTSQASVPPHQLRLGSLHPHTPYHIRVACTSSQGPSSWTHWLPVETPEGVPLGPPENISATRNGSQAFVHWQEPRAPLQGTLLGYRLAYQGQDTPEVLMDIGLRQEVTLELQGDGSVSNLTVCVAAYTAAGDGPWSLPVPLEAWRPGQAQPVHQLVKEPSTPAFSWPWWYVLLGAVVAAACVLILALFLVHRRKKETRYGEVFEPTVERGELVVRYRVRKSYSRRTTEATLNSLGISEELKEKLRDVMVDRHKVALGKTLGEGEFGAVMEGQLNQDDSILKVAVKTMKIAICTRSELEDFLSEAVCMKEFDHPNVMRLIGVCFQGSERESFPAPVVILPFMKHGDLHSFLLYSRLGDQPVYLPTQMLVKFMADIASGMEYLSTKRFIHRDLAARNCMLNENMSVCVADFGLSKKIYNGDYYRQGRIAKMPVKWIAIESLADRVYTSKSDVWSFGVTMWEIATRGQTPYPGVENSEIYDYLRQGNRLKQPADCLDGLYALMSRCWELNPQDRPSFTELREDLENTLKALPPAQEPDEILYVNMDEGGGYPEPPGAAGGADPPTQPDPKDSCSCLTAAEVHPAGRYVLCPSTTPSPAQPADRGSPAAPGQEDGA
In words: Biochemical potency, HTRF KinEASE-TK kinase assay. More on the design: purchased Invitrogen. As to conditions: 5 nM AXL, 700 μM ATP. A digest of the protocol:
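Steps: compound plus kinase, 1 h RT; add ATP (700 µM final) and biotin-TK substrate (800 nM final); run 2 h RT; stop into streptavidin-XL665/anti-phospho cryptate detection mix, 1 h; read 665/620. AXL at 5 nM, TYRO3 and MER at 1 nM.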

As for `CS(=O)(=O)c1cccnc1-c1ccc(-c2c[nH]c3ncc(-c4ccc5c(c4)CC[C@@H](N4C6COCC4C6)CC5)cc23)cc1` [Example 102, 6-[(7S)-2-{3-[4-(3-Methanesulfonylpyridin-2-yl)phenyl]-1H-pyrrolo[2,3-b]pyridin-5-yl}-6,7,8,9-tetrahydro-5H-benzo[7]annulen-7-yl]-3-oxa-6-azabicyclo[3.1.1]heptane], the IC50 is < 100 nM.
Next, `FC(F)(F)Oc1cccnc1-c1ccc(-c2c[nH]c3ncc(-c4ccc5c(c4)CC[C@@H](N4C6COCC4C6)CC5)cc23)cc1` [Example 103, 6-[(7S)-2-(3-{4-[3-(Trifluoromethoxy)pyridin-2-yl]phenyl}-1H-pyrrolo[2,3-b]pyridin-5-yl)-6,7,8,9-tetrahydro-5H-benzo[7]annulen-7-yl]-3-oxa-6-azabicyclo[3.1.1]heptane]: < 100 nM; `c1cnc(-c2ccc(-c3n[nH]c4ncc(-c5ccc6c(c5)CC[C@@H](N5C7COCC5C7)CC6)cc34)cc2)c(O[C@@H]2CCOC2)c1` [Example 104, 6-[(7S)-2-[3-(4-{3-[(3R)—Oxolan-3-yloxy]pyridin-2-yl}phenyl)-1H-pyrazolo[3,4-b]pyridin-5-yl]-6,7,8,9-tetrahydro-5H-benzo[7]annulen-7-yl]-3-oxa-6-azabicyclo[3.1.1]heptane]: < 100 nM.
`Cc1cccnc1-c1ccc(-c2n[nH]c3ncc(-c4ccc5c(c4)CC[C@@](C)(N4CCC[C@H]4C)CC5)cc23)nc1` [Example 105, 3-Methyl-6′-{5-[(7S)-7-methyl-7-[(2R)-2-methylpyrrolidin-1-yl]-6,7,8,9-tetrahydro-5H-benzo[7]annulen-2-yl]-1H-pyrazolo[3,4-b]pyridin-3-yl}-2,3′-bipyridine]: the IC50 is < 100 nM.
Next, `CC(C)(O)c1ccccc1-c1ccc(-c2n[nH]c3ncc(-c4ccc5c(c4)CC[C@@H](N4C6COCC4C6)CC5)cc23)cn1` [Example 113, 2-[2-(5-{5-[(7S)-7-{3-Oxa-6-azabicyclo[3.1.1]heptan-6-yl}-6,7,8,9-tetrahydro-5H-benzo[7]annulen-2-yl]-1H-pyrazolo[3,4-b]pyridin-3-yl}pyridin-2-yl)phenyl]propan-2-ol]: < 100 nM; `CC(C)(O)c1ccccc1-c1ccc(-c2c[nH]c3ncc(-c4ccc5c(c4)CC[C@@H](N4C6COCC4C6)CC5)cc23)cn1` [Example 114, 2-[2-(5-{5-[(7S)-7-{3-Oxa-6-azabicyclo[3.1.1]heptan-6-yl}-6,7,8,9-tetrahydro-5H-benzo[7]annulen-2-yl]-1H-pyrrolo[2,3-b]pyridin-3-yl}pyridin-2-yl)phenyl]propan-2-ol]: < 100 nM.
For `Cc1ccc(-c2ccc(-c3n[nH]c4ncc(-c5ccc6c(c5)CC[C@@H](N5C7COCC5C7)CC6)cc34)cc2)nc1` [Example 115, 6-[(7S)-2-{3-[4-(5-Methylpyridin-2-yl)phenyl]-1H-pyrazolo[3,4-b]pyridin-5-yl}-6,7,8,9-tetrahydro-5H-benzo[7]annulen-7-yl]-3-oxa-6-azabicyclo[3.1.1]heptane], the IC50 is < 100 nM.
The value for `Cc1cccc(-c2ccc(-c3n[nH]c4ncc(-c5ccc6c(c5)CC[C@@H](N5C7COCC5C7)CC6)cc34)cc2)n1` [Example 116, 6-[(7S)-2-{3-[4-(6-Methylpyridin-2-yl)phenyl]-1H-pyrazolo[3,4-b]pyridin-5-yl}-6,7,8,9-tetrahydro-5H-benzo[7]annulen-7-yl]-3-oxa-6-azabicyclo[3.1.1]heptane] was < 100 nM; that for `Cc1ccnc(-c2ccc(-c3n[nH]c4ncc(-c5ccc6c(c5)CC[C@@H](N5C7COCC5C7)CC6)cc34)cc2)c1` [Example 117, 6-[(7S)-2-{3-[4-(4-Methylpyridin-2-yl)phenyl]-1H-pyrazolo[3,4-b]pyridin-5-yl}-6,7,8,9-tetrahydro-5H-benzo[7]annulen-7-yl]-3-oxa-6-azabicyclo[3.1.1]heptane] was < 100 nM; that for `Cc1ccnc(-c2ccc(-c3n[nH]c4ncc(-c5ccc6c(c5)CC[C@@H](N5C7COCC5C7)CC6)cc34)cc2)c1C` [Example 118, 6-[(7S)-2-{3-[4-(3,4-Dimethylpyridin-2-yl)phenyl]-1H-pyrazolo[3,4-b]pyridin-5-yl}-6,7,8,9-tetrahydro-5H-benzo[7]annulen-7-yl]-3-oxa-6-azabicyclo[3.1.1]heptane] was < 100 nM.
Next, `Cc1cnc(-c2ccc(-c3n[nH]c4ncc(-c5ccc6c(c5)CC[C@@H](N5C7COCC5C7)CC6)cc34)cc2)c(C)c1` [Example 119, 6-[(7S)-2-{3-[4-(3,5-Dimethylpyridin-2-yl)phenyl]-1H-pyrazolo[3,4-b]pyridin-5-yl}-6,7,8,9-tetrahydro-5H-benzo[7]annulen-7-yl]-3-oxa-6-azabicyclo[3.1.1]heptane]: < 100 nM; `Cc1ccc(C)c(-c2ccc(-c3n[nH]c4ncc(-c5ccc6c(c5)CC[C@@H](N5C7COCC5C7)CC6)cc34)cc2)n1` [Example 120, 6-[(7S)-2-{3-[4-(3,6-Dimethylpyridin-2-yl)phenyl]-1H-pyrazolo[3,4-b]pyridin-5-yl}-6,7,8,9-tetrahydro-5H-benzo[7]annulen-7-yl]-3-oxa-6-azabicyclo[3.1.1]heptane]: < 100 nM; `O=C1OCCN1c1cccnc1-c1ccc(-c2n[nH]c3ncc(-c4ccc5c(c4)CC[C@@H](N4C6COCC4C6)CC5)cc23)cc1` [Example 121, 3-[2-(4-{5-[(7S)-7-{3-Oxa-6-azabicyclo[3.1.1]heptan-6-yl}-6,7,8,9-tetrahydro-5H-benzo[7]annulen-2-yl]-1H-pyrazolo[3,4-b]pyridin-3-yl}phenyl)pyridin-3-yl]-1,3-oxazolidin-2-one]: < 100 nM.
The value for `Cc1ncc(C)c(-c2ccc(-c3n[nH]c4ncc(-c5ccc6c(c5)CC[C@@H](N5C7COCC5C7)CC6)cc34)cc2)n1` [Example 122, 6-[(7S)-2-{3-[4-(2,5-Dimethylpyrimidin-4-yl)phenyl]-1H-pyrazolo[3,4-b]pyridin-5-yl}-6,7,8,9-tetrahydro-5H-benzo[7]annulen-7-yl]-3-oxa-6-azabicyclo[3.1.1]heptane] was < 100 nM; that for `Cc1ncc(C)c(-c2ccc(-c3c[nH]c4ncc(-c5ccc6c(c5)CC[C@@H](N5C7COCC5C7)CC6)cc34)cc2)n1` [Example 123, 6-[(7S)-2-{3-[4-(2,5-Dimethylpyrimidin-4-yl)phenyl]-1H-pyrrolo[2,3-b]pyridin-5-yl}-6,7,8,9-tetrahydro-5H-benzo[7]annulen-7-yl]-3-oxa-6-azabicyclo[3.1.1]heptane] was < 100 nM.
As for `C[C@@H]1COC(=O)N1c1cccnc1-c1ccc(-c2n[nH]c3ncc(-c4ccc5c(c4)CC[C@@H](N4C6COCC4C6)CC5)cc23)cc1` [Example 124, (4R)-4-Methyl-3-[2-(4-{5-[(7S)-7-{3-oxa-6-azabicyclo[3.1.1]heptan-6-yl}-6,7,8,9-tetrahydro-5H-benzo[7]annulen-2-yl]-1H-pyrazolo[3,4-b]pyridin-3-yl}phenyl)pyridin-3-yl]-1,3-oxazolidin-2-one], the IC50 is < 100 nM.
The value for `C[C@H]1COC(=O)N1c1cccnc1-c1ccc(-c2n[nH]c3ncc(-c4ccc5c(c4)CC[C@@H](N4C6COCC4C6)CC5)cc23)cc1` [Example 125, (4S)-4-Methyl-3-[2-(4-{5-[(7S)-7-{3-oxa-6-azabicyclo[3.1.1]heptan-6-yl}-6,7,8,9-tetrahydro-5H-benzo[7]annulen-2-yl]-1H-pyrazolo[3,4-b]pyridin-3-yl}phenyl)pyridin-3-yl]-1,3-oxazolidin-2-one] was < 100 nM; that for `O=C1CCCCN1c1cccnc1-c1ccc(-c2n[nH]c3ncc(-c4ccc5c(c4)CC[C@@H](N4C6COCC4C6)CC5)cc23)cc1` [Example 127, 1-[2-(4-{5-[(7S)-7-{3-Oxa-6-azabicyclo[3.1.1]heptan-6-yl}-6,7,8,9-tetrahydro-5H-benzo[7]annulen-2-yl]-1H-pyrazolo[3,4-b]pyridin-3-yl}phenyl)pyridin-3-yl]piperidin-2-one] was < 100 nM; that for `CN(C(=O)C1CC1)c1cccnc1-c1ccc(-c2n[nH]c3ncc(-c4ccc5c(c4)CC[C@@H](N4C6COCC4C6)CC5)cc23)cc1` [Example 128, N-Methyl-N-[2-(4-{5-[(7S)-7-{3-oxa-6-azabicyclo[3.1.1]heptan-6-yl}-6,7,8,9-tetrahydro-5H-benzo[7]annulen-2-yl]-1H-pyrazolo[3,4-b]pyridin-3-yl}phenyl)pyridin-3-yl]cyclopropanecarboxamide] was < 100 nM.
Next, `Cc1cccnc1-c1ccc(-c2n[nH]c3ncc(-c4ccc5c(c4)CC[C@@H](N[C@H]4CCCOC4)CC5)cc23)cc1` [Example 129, (3S)—N-[(7S)-2-{3-[4-(3-Methylpyridin-2-yl)phenyl]-1H-pyrazolo[3,4-b]pyridin-5-yl}-6,7,8,9-tetrahydro-5H-benzo[7]annulen-7-yl]oxan-3-amine]: < 100 nM.
